ChEMBL document CHEMBL1127141, “Monocyclic -lactam inhibitors of human leukocyte elastase. Stereospecific synthesis and activity of 3,4-disubstituted-2-azetidinones” (Bioorg Med Chem Lett, 1993)

Legend:
[1] = target: T1, Neutrophil elastase (Homo sapiens) (UniProt P08246); assay: Compound was evaluated for the inhibitory activity against Human leukocyte elastase
T1 sequence (whole entry): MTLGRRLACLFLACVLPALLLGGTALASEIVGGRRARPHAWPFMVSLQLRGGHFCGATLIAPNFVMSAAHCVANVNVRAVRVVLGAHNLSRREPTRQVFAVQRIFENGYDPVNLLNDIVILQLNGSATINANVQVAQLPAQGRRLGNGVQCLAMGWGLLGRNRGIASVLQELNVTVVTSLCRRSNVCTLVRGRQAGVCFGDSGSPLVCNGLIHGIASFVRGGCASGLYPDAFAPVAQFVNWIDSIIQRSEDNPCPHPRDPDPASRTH

Neutrophil elastase = target: T2, Neutrophil elastase (Homo sapiens, UniProt P08246); assay: Compound was evaluated for the inhibitory activity against Human leukocyte elastase; […]
T2 sequence (P08246 whole entry): T1 sequence (whole entry)

Row | Compound | K obs / 1 [1] | Ki (Neutrophil elastase)
1 | CC[C@@H]1C(=O)N(C(=O)NCc2ccccc2)[C@H]1Oc1ccc(C(=O)O)cc1 | 424 M⁻¹ s⁻¹ | –
2 | CCC1C(=O)N(C(=O)NCc2ccccc2)C1Oc1ccc(C(=O)O)cc1 (trans isomer) | 2480 M⁻¹ s⁻¹ | –
3 | CC[C@H]1C(=O)N(C(=O)NCc2ccccc2)[C@H]1Oc1ccc(C(=O)O)cc1 | – | 5.6 µM
4 | CC[C@@H]1C(=O)N(C(=O)NCc2ccccc2)[C@@H]1Oc1ccc(C(=O)O)cc1 | 383 M⁻¹ s⁻¹ | –
